{
  "source": "patent US12599645B2",
  "about": "“Antibodies which bind to lysophosphatidic acid receptor 1 (LPAR1)” (DJS ANTIBODIES LTD, priority 2021, dated 2026)",
  "molecules": {"B1": {"name": "anti-LPAR1 mAb: mAb of the in vitro epitope analysis; VH of SEQ ID NO: 369 and VL of SEQ ID NO: 39 (antibody, V domains shown)", "VH": "QVQLVQSGSELKKPGASVKVSCKASGYTFTSSGISWVRQAPGQGLEWMGEILPRSGYTNYNQGFTGRFVFSADKSVSTAYLQISSLKAEDTAVYYCARDFASARYAMDYWGQGTTVTVSS", "VL": "SIQMTQSPSSLSASVGDRVTITCQASQSVRYNVAWYQQKPGKAPKLLIYYASNRYTGVPSRFSGSGSGTDFTFTISSLQPEDIATYFCQHHYSSPLTFGGGTKLEIK", "modifications": "REGION 1..120: note = >huVH4_Q61A97A99G104"}},
  "key": {"diabetic nephropathy": {"test_system": "diabetic nephropathy", "details": "8 weeks, cited from earlier work"}, "[1]": {"test_system": "renal fibrosis after UUO surgery", "experiment": "Unilateral ureteral obstruction (UUO) efficacy model of renal fibrosis", "format": "in vivo, Hartley guinea pigs", "procedure": "Unilateral ureteral obstruction (UUO) is a well-characterized disease model for renal fibrosis. The UUO model encompasses key pathophysiological features of chronic kidney disease; tubular necrosis and inflammatory cell infiltration within a relatively short period.\nTwo unilateral ureteral obstruction (UUO) model efficacy studies were carried out in six-week old female Hartley guinea pigs. On Day 0, UUO surgery was performed. BMS-986020 was administered orally at a dose level of 30 mg/kg in a volume of 5 mL/kg twice daily at from Day −1 to 9. Isotype control and anti-LPAR1 antibody was intraperitoneally administered at a dose level of 6 mg/kg (low) or 20 mg/kg (high) in a volume of 10 mL/kg at Day −1, Day 0, Day 3 and Day 6. The viability, clinical signs, behaviour and individual body weight was monitored daily.\nThe animals were sacrificed at Day 10. The ligated left kidney and right kidney weight were measured at sacrifice.\nHydroxyproline is an amino acid, making up around 14% of collagen and acts as an important indicator of the severity of fibrosis. To quantify kidney hydroxyproline content, frozen posterior right section of left kidney samples were processed by an alkaline-acid hydrolysis method. AC buffer (2.2M acetic acid/0.48M citric acid) was added to the samples, followed by centrifugation to collect the supernatant. A standard curve of hydroxyproline was constructed with serial dilutions of trans-4-hydroxy-L-proline (Sigma-Aldrich, USA) starting at 16 μg/mL. The prepared samples and standards were mixed with chloramine T solution (Nacalai Tesque Inc., Japan) and incubated for 25 minutes at room temperature. The samples were then mixed with Ehrlich's solution and heated at 65° C. for 20 minutes to develop the colour. After samples were cooled on ice and centrifuged to remove precipitates, the optical density of each supernatant was measured at 560 nm. The concentrations of hydroxyproline were calculated from the hydroxyproline standard curve. Protein concentrations of kidney samples were determined using a BCA protein assay kit (Thermo Fisher Scientific, USA) and used to normalize the calculated hydroxyproline values. Kidney hydroxyproline contents were expressed as μg per mg protein.\nThe left kidney was fixed in Bouin's solution and embedded in paraffin. For PAS staining, sections were cut from paraffin blocks and stained with Schiff's reagent (FUJIFILM Wako pure chemical corporation, Japan) according to the manufacturer's instructions. To visualize collagen deposition, kidney sections were stained using picro-Sirius red solution (FUJIFILM Wako pure chemical corporation). For quantification of interstitial and medulla fibrosis area, bright field images in the corticomedullary region were captured using a digital camera (DFC295) at 200-fold magnification, and the positive areas in 5 fields/section were measured using ImageJ software (National Institute of Health, USA)."}, "[2]": {"test_system": "idiopathic pulmonary fibrosis", "details": "cited from earlier work"}, "[3]": {"test_system": "hepatic bile acid efflux transporters (e.g., BSEP, MRP3 and MRP4)", "details": "cited from earlier work"}, "LPAR1": {"target": "LPAR1 (Homo sapiens, UniProt Q92633)", "sequence (Q92633 whole entry)": "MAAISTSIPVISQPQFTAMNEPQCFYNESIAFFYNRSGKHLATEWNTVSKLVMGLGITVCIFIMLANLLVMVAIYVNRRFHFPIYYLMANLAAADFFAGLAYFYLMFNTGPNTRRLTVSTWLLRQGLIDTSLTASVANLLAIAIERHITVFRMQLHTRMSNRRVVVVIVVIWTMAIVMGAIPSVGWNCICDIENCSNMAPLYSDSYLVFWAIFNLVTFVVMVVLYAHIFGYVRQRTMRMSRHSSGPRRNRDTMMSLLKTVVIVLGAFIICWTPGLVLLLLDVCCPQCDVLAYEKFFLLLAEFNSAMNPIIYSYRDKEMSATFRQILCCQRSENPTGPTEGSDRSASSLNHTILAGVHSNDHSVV", "experiment": "BRET assay (G protein activation and βArrestin 2 biosensors)", "format": "cell-based", "design": "expressed in transfected cells; host or cells: HEK293 (transient, PEI)", "procedure": "Using polyethylenimine (PEI) transfection agent at a 3:1 ratio, HEK293 cells were co-transfected in suspension with hLPAR1 and one of the following biosensors: G protein activation sensors (Gαi2, Gα13, and Gαq) and the βArrestin 2-PM recruitment biosensor (+GRK2). Cells were directly seeded in 96-well plates immediately following transfection at a density of 35,000 cells/well. 48 hours post-transfection, BRET experiments were performed in both agonist and allosteric/antagonist mode. Using a plate washer, culture medium was aspirated and replaced with 30 μl of Hank's Balanced Salt Solution buffer (HBSS). Plates were equilibrated at room temperature for 60 minutes. For agonist testing, serial dilutions of the antibodies were performed in PBS and then added to each well. Antibodies were assayed at 12 concentrations in technical duplicates. Small molecules were added to each relevant well. Small molecules were assayed at 22 concentrations with each biosensor. Cells were then incubated with the antibodies or small molecules at room temperature for 60 or 10 minutes, respectively. 10 μl of 10 μM e-Coelenterazine Prolume Purple (Nanolight) was then added to each well. Cells were incubated at room temperature for an additional 10 minutes. BRET readings were then collected with a 0.4 sec integration time on a plate reader (filters: 400 nm/70 nm, 515 nm/20 nm). For allosteric testing (after agonist testing), an EC75 of the endogenous ligand (oleoyl-LPA) was added to each well already containing antibody or small molecule. Cells were incubated at room temperature for an additional 10 minutes. BRET readings were then collected with a 0.4 sec integration time on a plate reader (filters: 400 nm/70 nm, 515 nm/20 nm). BRET signals were determined by calculating the ratio of light emitted by GFP-acceptor (515 nm) over light emitted by luciferase-donor (400 nm). All BRET ratios were standardized with pre-established BRET values for positive and negative controls. The standardized BRET ratio is referred to as universal BRET (uBRET). Resulting dose-response curves were fitted using the three- or four-parameter logistic non-linear regression model in GraphPad Prism 9.\nThe inhibition characteristics of Antibody 12 were investigated by Bioluminescence Resonance Energy Transfer (BRET, method 1.15) and compared to a small molecule LPAR1 inhibitor of the prior art (BMS-986020), see FIG. 13. The upper lines are values recorded with LPA present and the lower lines are values recorded with LPA not present. […] This can only happen if the ligand (LPA) is also interacting with the receptor at the same time to enable some signalling. […]"}, "human LPAR1 [4]": {"target": "T1, human LPAR1 (Homo sapiens, UniProt Q92633, N35A)", "T1 construct": "HA; expressed in transfected cells; host or cells: CHO-K1 (transient)", "T1 sequence (Q92633 whole entry N35A)": "as the sequence (Q92633 whole entry) above, with N35A counted along it", "experiment": "In vitro epitope analysis: transient-transfection CIFAT on human LPAR1 with residue substitutions to alanine", "format": "binding", "details": "human LPAR1 position 35 (N, N-terminus) substituted to alanine; binding of mAb with VH SEQ ID NO: 369, VL SEQ ID NO: 39", "procedure": "(§1) CHO-K1 cells were seeded in clear 96-well plates at 20,000 cells per 200 μL full growth medium and incubated for 24 hours at 37° C. The following day, in a sterile tube, 0.0309 uL/well PEI (Generon, MW 160,000) was diluted into 10 uL/well transfection medium (DMEM supplemented with 2 mM L-glutamine and Penicillin-Streptomycin). The diluted PEI was added to 100 ng/well DNA encoding the target protein (human LPAR1 (SEQ ID NO: 62) unless otherwise stated), before vortexing immediately and incubating the mixture for 10 minutes at room temperature. 200 μL/well full growth medium was added to the PEI-DNA mixture, then medium in wells was taken off and 200 ul full growth medium/PEI/DNA mixture was added in the wells of the adherent cell plate. […] After washing and cell fixation with 4% PFA, the binding of the antibodies was detected using a goat anti-human Alexa Fluor 488 detection antibody (Invitrogen), incubated for 1 hour at room temperature. Fluorescence at 488 nm was measured using a BMG LABTECH ClarioStar plate reader and microscopy images were taken at 10× magnification.\n(§2) Based on the epitope analysis presented in FIGS. 3 and 4, constructs were designed to test the important residues/interaction regions predicted in silico. […] CHO-K1 cells were transiently transfected with these plasm ids and the binding of an anti-LPAR1 mAb assessed to each of these receptor variants using protocol 1.11. […]"}, "human LPAR1 [5]": {"target": "T2, human LPAR1 (Homo sapiens, UniProt Q92633, Q286A)", "T2 construct": "HA; expressed in transfected cells; host or cells: CHO-K1 (transient)", "T2 sequence (Q92633 whole entry Q286A)": "as the sequence (Q92633 whole entry) above, with Q286A counted along it", "experiment": "In vitro epitope analysis: transient-transfection CIFAT on human LPAR1 with residue substitutions to alanine", "format": "binding", "details": "human LPAR1 position 286 (Q, ECD3) substituted to alanine", "procedure": "as §1, §2"}, "[6]": {"details": "Study 1, BMS-986020 30 mg/kg oral twice daily, antibody 20 mg/kg i.p., Day 10"}},
  "note": "Like-named read-outs stand apart in the source and are kept apart here.",
  "data": [
    {"molecule": "Cc1noc(-c2ccc(-c3ccc(CC(=O)O)cc3)cc2)c1NC(=O)O[C@H](C)c1ccccc1", "note": "[AM095]", "values": [
      {"measurement": "24 h albuminuria vs untreated controls, reduction", "setting": "diabetic nephropathy; STZ-induced (early disease model), Lee J H et al. (2019)", "result": "~30", "unit": "% reduction"}
    ]},
    {"molecule": "Cc1noc(-c2ccc(-c3ccc(C4(C(=O)O)CC4)cc3)cc2)c1NC(=O)O[C@H](C)c1ccccc1", "note": "[BMS-986020]", "values": [
      {"measurement": "cortical fibrosis (histological picrosirius staining)", "setting": "[1]; [6]", "result": "reduced cortical fibrosis"},
      {"measurement": "kidney hydroxyproline", "setting": "[1]; [6]", "result": "No observable difference"},
      {"measurement": "histological picrosirius staining", "setting": "[1]; Study 2", "result": "No observable difference"},
      {"measurement": "kidney hydroxyproline", "setting": "[1]; Study 2, BMS-986020 30 mg/kg oral vs vehicle, antibody 20 mg/kg (high) i.p. vs isotype antibody", "result": "trend towards reduced hydroxyproline"},
      {"measurement": "hepatobiliary toxicity", "setting": "[2]; compound-specific, not mediated via antagonism of LPAR1", "result": "off-target hepatobiliary toxicity"},
      {"measurement": "efficacy in patients with idiopathic pulmonary fibrosis", "setting": "[2]; human, in vivo", "result": "showed efficacy"},
      {"measurement": "binding to hepatic bile acid efflux transporters", "setting": "[3]", "result": "off-target binding"},
      {"measurement": "mode of inhibition", "setting": "LPAR1; G13 biosensor", "result": "competitive inhibitor"},
      {"measurement": "inhibition", "setting": "LPAR1; interaction of G-protein G13 with the GPCR, in the presence of LPA", "result": 100, "unit": "%"}
    ]},
    {"molecule": "Cc1noc(-c2ccc(CSCCC(=O)O)cc2)c1NC(=O)OC(C)c1ccccc1Cl", "note": "(stereo not shown) [Ki16425]", "values": [
      {"measurement": "24 h albuminuria vs untreated controls, reduction", "setting": "diabetic nephropathy; db/db (moderate model), Li et al. (2017)", "result": "~30", "unit": "%"}
    ]},
    {"molecule": "B1", "values": [
      {"measurement": "Epitope residue", "setting": "human LPAR1 [4]", "result": "Inconclusive"},
      {"measurement": "Epitope residue", "setting": "human LPAR1 [5]", "result": "Inconclusive"}
    ]}
  ]
}
